Patent US11000033B2, “Ketone or oxime compound, and herbicide” (NISSAN CHEMICAL CORPORATION, priority 2014, dated 2021)

Experiments:
Assay type in all cases: in vivo
[1] = tested on: Echinochloa crus-galli var. crus-galli; test: Test Example 4: herbicidal effect by soil treatment (symbol H)
Outline: (§1)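 Seeds were sown in sterilized diluvial soil, covered with about 1.5 cm of soil, and the soil surface was sprayed with a water-diluted emulsion of the compound at a predetermined rate. Plants grew in a greenhouse at 25° C. to 30° C.; effects were scored visually 3 weeks after application.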

rice = test: Test Example 4: effect on crop by soil treatment (symbol b)
Outline: (§2)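 Steps: fill box with sterilized diluvial soil; sow seed spot-like; cover with ~1.5 cm soil; grow in greenhouse (25° C. to 30° C.).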

Amaranthus retroflexus [2] = test: Test Example 5: herbicidal effect by foliage application, plastic box (symbol N); details: 3 weeks after application; for N: Amaranthus retroflexus, herbicidal effect grade: 320 g/ha
Outline: (§3)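 Sowing in sterilized diluvial soil, 14 days' greenhouse growth at 25° C. to 30° C., then uniform small-sprayer foliar application of aqueous emulsion dilution; plants scored three weeks afterwards.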

Stellaria media = test: Test Example 4: herbicidal effect by soil treatment (symbol P)
Outline: as §1

Setaria viridis = test: Test Example 5: herbicidal effect by foliage application, plastic box (symbol G); details: 3 weeks after application; for G: Setaria viridis, herbicidal effect grade: 320 g/ha
Outline: as §3

Amaranthus retroflexus [3] = test: Test Example 4: herbicidal effect by soil treatment (symbol N)
Outline: as §1

rapeseed [4] = test: Test Example 5: effect on crop by foliage application, plastic box (symbol g); details: 3 weeks after application; for g: rapeseed, effect on crop grade: 320 g/ha
Outline: (§4)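 Sterilized diluvial soil, plastic box (21 × 13 × 7 cm); spot sowing, ~1.5 cm soil cover; greenhouse 25–30° C.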

Scirpus juncoides = test: Test Example 1: herbicidal activity, application before weed generation in submerged conditions (symbol B)
Outline: (§5)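 Weeds are sown into submerged alluvial soil alongside transplanted 2.5-leaf rice, and the compound, as an emulsion diluted to a set rate, is applied onto the water before emergence. Rating on the 0–5 herbicidal-ratio scale follows 3 weeks of greenhouse growth at 25–30 °C.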

[5] = tested on: directly sowed rice plant; test: Test Example 3: effect on crop by foliage application, Wagner pot (symbol b)
Outline: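 Steps: fill a 1/10000-are Wagner pot with alluvial soil; add water and mix to submerge at 0.1–0.5 cm depth; sow rice plus Echinochloa crus-galli var. crus-galli, Leptochloa chinensis and Cyperus difformis; grow in a 25–30 °C greenhouse.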

rapeseed [6] = test: Test Example 4: effect on crop by soil treatment (symbol g)
Outline: as §2

beet = test: Test Example 5: effect on crop by foliage application, plastic box (symbol f); details: 3 weeks after application; for f: beet, effect on crop grade: 320 g/ha
Outline: as §4

Cyperus difformis = test: Test Example 3: herbicidal effect by foliage application, Wagner pot (symbol E)
Outline: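 Foliar spray of water-diluted emulsion formulation at a predetermined herbicide amount onto 14-day-old plants in flooded alluvial soil (water depth 0.1–0.5 cm), greenhouse 25–30 °C; rice sown alongside. Scored 3 wk post-application on set criteria.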

Monochoria vaginalis = test: Test Example 1: herbicidal activity, application before weed generation in submerged conditions (symbol C)
Outline: as §5

[7] = tested on: Echinochloa crus-galli var. crus-galli; test: Test Example 5: herbicidal effect by foliage application, plastic box (symbol H); details: 3 weeks after application; for H: Echinochloa crus-galli var. crus-galli, herbicidal effect grade: 320 g/ha
Outline: as §3

[8] = tested on: Echinochloa oryzacola Vasing.; test: Test Example 1: herbicidal activity, application before weed generation in submerged conditions (symbol A)
Outline: as §5

corn = test: Test Example 4: effect on crop by soil treatment (symbol c)
Outline: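 The test used sterilized diluvial soil. Seed was set down in spots and overlaid with about 1.5 cm of soil before growth in a greenhouse kept at 25° C. to 30° C.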

[9] = application herbicide amount 320 g/ha
[10] = application herbicide amount 320 g/ha, Table 24
[11] = application herbicide amount 192 g/ha

Row | SMILES | N: Amaranthus retroflexus, herbicidal effect grade (Amaranthus retroflexus [2]) | G: Setaria viridis, herbicidal effect grade (Setaria viridis) | g: rapeseed, effect on crop grade (rapeseed [4]) | f: beet, effect on crop grade (beet) | H: Echinochloa crus-galli var. crus-galli, herbicidal effect grade [7] | H (Echinochloa crus-galli var. crus-galli) herbicidal effect grade [1, 9] | b (directly sowed rice plant) effect on crop grade (rice; [9]) | P (Stellaria media) herbicidal effect grade (Stellaria media; [9]) | N (Amaranthus retroflexus) herbicidal effect grade (Amaranthus retroflexus [3]; [9]) | Herbicidal effect grade, B: Scirpus juncoides (Scirpus juncoides; [9]) | effect on crop b (directly sowed rice plant), grade 0-5 [5, 9] | g (rapeseed) effect on crop grade (rapeseed [6]; [9]) | herbicidal effect on E, grade 0-5 (Cyperus difformis; [9]) | Herbicidal effect grade, C: Monochoria vaginalis (Monochoria vaginalis; [9]) | Herbicidal effect grade, A: Echinochloa oryzacola Vasing. [8, 9] | c (corn) effect on crop grade (corn; [9]) | other results
1 | CCC(=O)CC1CC(O)=C(c2c(C)cc(Br)cc2OC)C1=O (racemic) [14-002] | 0 (Herbicidal ratio of 5% or lower (almost no effect)) | 5 (Herbicidal ratio of 90% or more (almost completely withered)) | 4 (Herbicidal ratio of 70% or higher and lower than 90%) | 0 (Herbicidal ratio of 5% or lower (almost no effect)) | 5 (Herbicidal ratio of 90% or more (almost completely withered)) | – | – | – | – | – | – | – | – | – | – | – | H: Echinochloa crus-galli var. crus-galli, herbicidal effect grade [1, 9]: 5 (Herbicidal ratio of 90% or more (almost completely withered)); b: directly sowed rice plant, effect on crop grade (rice; [9]): 5 (Herbicidal ratio of 90% or more (almost completely withered)); P: Stellaria media, herbicidal effect grade (Stellaria media; [9]): 0 (Herbicidal ratio of 5% or lower (almost no effect)); N: Amaranthus retroflexus, herbicidal effect grade (Amaranthus retroflexus [3]; [9]): 0 (Herbicidal ratio of 5% or lower (almost no effect)); B (Scirpus juncoides) herbicidal effect grade (Scirpus juncoides; [9]): 1 (Herbicidal ratio of 5% or higher and lower than 20%); b (directly sowed rice plant) effect on crop grade [5, 10]: 5 (Herbicidal ratio of 90% or more (almost completely withered)); g: rapeseed, effect on crop grade (rapeseed [6]; [9]): 0 (Herbicidal ratio of 5% or lower (almost no effect)); E herbicidal effect grade (Cyperus difformis; [10]): 5 (Herbicidal ratio of 90% or more (almost completely withered)); C (Monochoria vaginalis) herbicidal effect grade (Monochoria vaginalis; [9]): 2 (Herbicidal ratio of 20% or higher and lower than 40%); A (Echinochloa oryzacola Vasing.) herbicidal effect grade [8, 9]: 4 (Herbicidal ratio of 70% or higher and lower than 90%); c: corn, effect on crop grade (corn; [9]): 1 (Herbicidal ratio of 5% or higher and lower than 20%)
2 | CON=C(C)CC1CC(OC(=O)C(C)(C)C)=C(c2c(C)cc(C)cc2C)C1=O (centres unmarked) [1-004, 2-mesityl-4-{2-(methoxyimino)propyl}-3-oxocyclopent-1-en-1-yl pivalate] | 4 (Herbicidal ratio of 70% or higher and lower than 90%) | 5 (Herbicidal ratio of 90% or more (almost completely withered)) | 4 (Herbicidal ratio of 70% or higher and lower than 90%) | 3 (Herbicidal ratio of 40% or higher and lower than 70%) | 5 (Herbicidal ratio of 90% or more (almost completely withered)) | 5 (Herbicidal ratio of 90% or more (almost completely withered)) | 5 (Herbicidal ratio of 90% or more (almost completely withered)) | 0 (Herbicidal ratio of 5% or lower (almost no effect)) | 5 (Herbicidal ratio of 90% or more (almost completely withered)) | 5 (Herbicidal ratio of 90% or more (almost completely withered)) | 5 (Herbicidal ratio of 90% or more (almost completely withered)) | 4 (Herbicidal ratio of 70% or higher and lower than 90%) | 5 (Herbicidal ratio of 90% or more (almost completely withered)) | 4 (Herbicidal ratio of 70% or higher and lower than 90%) | 5 (Herbicidal ratio of 90% or more (almost completely withered)) | 4 (Herbicidal ratio of 70% or higher and lower than 90%) | –
3 | CON=C(C)CC1CC(OC(C)=O)=C(c2c(C)cc(C)cc2C)C1=O (centres unmarked) [1-005] | 4 (Herbicidal ratio of 70% or higher and lower than 90%) | 5 (Herbicidal ratio of 90% or more (almost completely withered)) | 4 (Herbicidal ratio of 70% or higher and lower than 90%) | 3 (Herbicidal ratio of 40% or higher and lower than 70%) | 5 (Herbicidal ratio of 90% or more (almost completely withered)) | 5 (Herbicidal ratio of 90% or more (almost completely withered)) | 5 (Herbicidal ratio of 90% or more (almost completely withered)) | 0 (Herbicidal ratio of 5% or lower (almost no effect)) | 5 (Herbicidal ratio of 90% or more (almost completely withered)) | 5 (Herbicidal ratio of 90% or more (almost completely withered)) | 5 (Herbicidal ratio of 90% or more (almost completely withered)) | 4 (Herbicidal ratio of 70% or higher and lower than 90%) | 5 (Herbicidal ratio of 90% or more (almost completely withered)) | 5 (Herbicidal ratio of 90% or more (almost completely withered)) | 5 (Herbicidal ratio of 90% or more (almost completely withered)) | 4 (Herbicidal ratio of 70% or higher and lower than 90%) | –
4 | CON=C(C)CC1CC(OS(C)(=O)=O)=C(c2c(C)cc(C)cc2C)C1=O (centres unmarked) [1-006] | 3 (Herbicidal ratio of 40% or higher and lower than 70%) | 5 (Herbicidal ratio of 90% or more (almost completely withered)) | 3 (Herbicidal ratio of 40% or higher and lower than 70%) | 0 (Herbicidal ratio of 5% or lower (almost no effect)) | 5 (Herbicidal ratio of 90% or more (almost completely withered)) | 5 (Herbicidal ratio of 90% or more (almost completely withered)) | 5 (Herbicidal ratio of 90% or more (almost completely withered)) | 0 (Herbicidal ratio of 5% or lower (almost no effect)) | 4 (Herbicidal ratio of 70% or higher and lower than 90%) | 3 (Herbicidal ratio of 40% or higher and lower than 70%) | 5 (Herbicidal ratio of 90% or more (almost completely withered)) | 0 (Herbicidal ratio of 5% or lower (almost no effect)) | 5 (Herbicidal ratio of 90% or more (almost completely withered)) | 3 (Herbicidal ratio of 40% or higher and lower than 70%) | 5 (Herbicidal ratio of 90% or more (almost completely withered)) | 1 (Herbicidal ratio of 5% or higher and lower than 20%) | –
5 | CON=C(C)CC1CC(OC(=O)C2CCCO2)=C(c2c(C)cc(C)cc2C)C1=O (centres unmarked) [1-076] | – | – | – | – | – | – | – | – | – | – | – | – | – | – | – | – | H: Echinochloa crus-galli var. crus-galli, herbicidal effect grade ([1]; 192 g/ha): 5 (Herbicidal ratio of 90% or more (almost completely withered)); b: directly sowed rice plant, effect grade on crop (rice; 192 g/ha): 5 (Herbicidal ratio of 90% or more (almost completely withered)); N: Amaranthus retroflexus, herbicidal effect (criteria 0-5) (Amaranthus retroflexus [2]; 192 g/ha): 0 (Herbicidal ratio of 5% or lower (almost no effect)); P: Stellaria media, herbicidal effect grade (Stellaria media; 192 g/ha): 0 (Herbicidal ratio of 5% or lower (almost no effect)); G: Setaria viridis, herbicidal effect (criteria 0-5) (Setaria viridis; 192 g/ha): 5 (Herbicidal ratio of 90% or more (almost completely withered)); N: Amaranthus retroflexus, herbicidal effect grade (Amaranthus retroflexus [3]; 192 g/ha): 4 (Herbicidal ratio of 70% or higher and lower than 90%); g: rapeseed, effect on crop (criteria 0-5) (rapeseed [4]; 192 g/ha): 4 (Herbicidal ratio of 70% or higher and lower than 90%); Herbicidal effect grade, B: Scirpus juncoides (Scirpus juncoides; [11]): 4 (Herbicidal ratio of 70% or higher and lower than 90%); effect on crop b (directly sowed rice plant), grade 0-5 [5, 11]: 5 (Herbicidal ratio of 90% or more (almost completely withered)); g: rapeseed, effect grade on crop (rapeseed [6]; 192 g/ha): 4 (Herbicidal ratio of 70% or higher and lower than 90%); f: beet, effect on crop (criteria 0-5) (beet; 192 g/ha): 0 (Herbicidal ratio of 5% or lower (almost no effect)); herbicidal effect on E, grade 0-5 (Cyperus difformis; [11]): 5 (Herbicidal ratio of 90% or more (almost completely withered)); Herbicidal effect grade, C: Monochoria vaginalis (Monochoria vaginalis; [11]): 0 (Herbicidal ratio of 5% or lower (almost no effect)); H: Echinochloa crus-galli var. crus-galli, herbicidal effect (criteria 0-5) ([7]; 192 g/ha): 5 (Herbicidal ratio of 90% or more (almost completely withered)); Herbicidal effect grade, A: Echinochloa oryzacola Vasing. [8, 11]: 4 (Herbicidal ratio of 70% or higher and lower than 90%); c: corn, effect grade on crop (corn; 192 g/ha): 2 (Herbicidal ratio of 20% or higher and lower than 40%)
